# Results taken from patent US20250171437A1 (Agios Pharmaceuticals,Inc., priority 2022, published 2025).
# Biological target: T1, human PAH with the R408W mutation (A375 R408W cells) (Homo sapiens, UniProt P00439, R408W)
# T1 construct: expressed in transfected cells
# T1 sequence (P00439 1-452 R408W): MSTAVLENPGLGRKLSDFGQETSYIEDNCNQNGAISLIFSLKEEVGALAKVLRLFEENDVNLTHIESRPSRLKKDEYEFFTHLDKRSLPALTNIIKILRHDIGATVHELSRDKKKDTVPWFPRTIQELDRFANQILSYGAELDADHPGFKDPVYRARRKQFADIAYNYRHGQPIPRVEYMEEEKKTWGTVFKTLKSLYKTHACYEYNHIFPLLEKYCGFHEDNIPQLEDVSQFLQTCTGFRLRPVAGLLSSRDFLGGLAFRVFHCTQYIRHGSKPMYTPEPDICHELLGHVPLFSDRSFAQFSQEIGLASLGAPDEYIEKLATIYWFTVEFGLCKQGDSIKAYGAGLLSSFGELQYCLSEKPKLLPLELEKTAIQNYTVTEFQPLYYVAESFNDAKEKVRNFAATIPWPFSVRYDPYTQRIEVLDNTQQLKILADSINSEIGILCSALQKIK
# Test: Cell Based Phenylalanine Flux Assay
# Conditions: A375 R408W cells; 24 hrs with compound, then 20 μM sepiapterin and 800 μM 13C9,15N-Phenylalanine for 4 hours; 13C-Tyrosine by LC-MS; average where tested multiple times
# In short: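 Phenylalanine-to-tyrosine flux is measured in A375 cells carrying stable human R408W PAH. After 24 h compound exposure, 13C9,15N-Phe (800 μM) with sepiapterin (20 μM) is supplied for 4 h and media 13C-Tyr is read by LC-MS; AC50s are binned.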
row,Compound,AC50 [µM]
1,"O=C(c1oc(-c2cncnc2)nc1C(F)F)N1CCc2[nH]cnc2[C@@H]1c1nc2cccc(F)c2o1 [Example 741, (R)-(4-(difluoromethyl)-2-(pyrimidin-5-yl)oxazol-5-yl)(4-(7-fluorobenzo[d]oxazol-2-yl)-6,7-dihydro-1H-imidazo[4,5-c]pyridin-5(4H)-yl)methanone]",≤ 0.5
2,"CC(F)(F)c1ncoc1C(=O)N1CCc2[nH]cnc2[C@@H]1c1nc2cc(F)ccc2o1 [Example 154, (R)-(4-(1,1-difluoroethyl)oxazol-5-yl)(4-(5-fluorobenzo[d]oxazol-2-yl)-6,7-dihydro-1H-imidazo[4,5-c]pyridin-5(4H)-yl)methanone]",1 to 5
3,"O=C(c1nnc(-c2ccccn2)o1)N1CCc2[nH]cnc2[C@H]1c1nc2c(F)cccc2o1 [Example 333, (S)-(4-(4-fluorobenzo[d]oxazol-2-yl)-6,7-dihydro-1H-imidazo[4,5-c]pyridin-5(4H)-yl)(5-(pyridin-2-yl)-1,3,4-oxadiazol-2-yl)methanone]",≤ 0.5
4,"Cn1cnc(-c2nc(C(F)(F)F)c(C(=O)N3CCc4[nH]cnc4[C@H]3c3nc4cc(F)ccc4o3)o2)c1 [Example 790, (S)-(4-(5-fluorobenzo[d]oxazol-2-yl)-6,7-dihydro-1H-imidazo[4,5-c]pyridin-5(4H)-yl)(2-(1-methyl-1H-imidazol-4-yl)-4-(trifluoromethyl)oxazol-5-yl)methanone]",0.5 to 1
5,"CC(C)(O)c1nc(C(F)F)c(C(=O)N2CCc3[nH]cnc3[C@@H]2c2nc3cccc(Cl)c3o2)o1 [Example 424, (R)-(4-(7-chlorobenzo[d]oxazol-2-yl)-6,7-dihydro-1H-imidazo[4,5-c]pyridin-5(4H)-yl)(4-(difluoromethyl)-2-(2-hydroxypropan-2-yl)oxazol-5-yl)methanone]",≤ 0.5
6,"O=C(c1ocnc1C(F)F)N1CCc2[nH]cnc2[C@H]1c1nc2cc(Br)cc(F)c2o1 [Example 573, (S)-(4-(5-bromo-7-fluorobenzo[d]oxazol-2-yl)-6,7-dihydro-1H-imidazo[4,5-c]pyridin-5(4H)-yl)(4-(difluoromethyl)oxazol-5-yl)methanone]",≤ 0.5
7,"Cn1cc(-c2nnc(C(=O)N3CCc4[nH]cnc4[C@@H]3c3nc4c(F)ccc(F)c4o3)o2)cn1 [Example 517, (R)-(4-(4,7-difluorobenzo[d]oxazol-2-yl)-6,7-dihydro-1H-imidazo[4,5-c]pyridin-5(4H)-yl)(5-(1-methyl-1H-pyrazol-4-yl)-1,3,4-oxadiazol-2-yl)methanone]",1 to 5
8,"Cc1cccc2oc([C@@H]3c4nc[nH]c4CCN3C(=O)c3cnc(C(C)(C)O)o3)nc12 [Example 511, (S)-(2-(2-hydroxypropan-2-yl)oxazol-5-yl)(4-(4-methylbenzo[d]oxazol-2-yl)-6,7-dihydro-1H-imidazo[4,5-c]pyridin-5(4H)-yl)methanone]",0.5 to 1
9,"O=C(c1ccnn1C(F)F)N1CCc2[nH]cnc2[C@@H]1c1nc2ccc(F)cc2o1 [Example 190, (R)-(1-(difluoromethyl)-1H-pyrazol-5-yl)(4-(6-fluorobenzo[d]oxazol-2-yl)-6,7-dihydro-1H-imidazo[4,5-c]pyridin-5(4H)-yl)methanone]",1 to 5
10,"Cc1ccc2nc([C@H]3c4nc[nH]c4CCN3C(=O)c3nnc(-c4cc[nH]n4)o3)oc2c1 [Example 360, (R)-(5-(1H-pyrazol-3-yl)-1,3,4-oxadiazol-2-yl)(4-(6-methylbenzo[d]oxazol-2-yl)-6,7-dihydro-1H-imidazo[4,5-c]pyridin-5(4H)-yl)methanone]",1 to 5
11,"(R)-(3-(difluoromethyl)-1-methyl-1H-1,2,4-triazol-5-yl)(4-(4-methylbenzo[d]oxazol-2-yl)-6,7-dihydro-1H-imidazo[4,5-c]pyridin-5(4H)-yl)methanone [Example 814]",≤ 0.5
12,"Cc1ccc2oc([C@@H]3c4nc[nH]c4CCN3C(=O)c3nnc(-c4cnn(C)c4)o3)nc2c1 [Example 111, (S)-(5-(1-methyl-1H-pyrazol-4-yl)-1,3,4-oxadiazol-2-yl)(4-(5-methylbenzo[d]oxazol-2-yl)-6,7-dihydro-1H-imidazo[4,5-c]pyridin-5(4H)-yl)methanone]",0.5 to 1
13,"O=C(c1oc(C2(O)CC2)nc1C(F)F)N1CCc2[nH]cnc2[C@H]1c1nc2cccc(F)c2o1 [Example 214, (S)-(4-(difluoromethyl)-2-(1-hydroxycyclopropyl)oxazol-5-yl)(4-(7-fluorobenzo[d]oxazol-2-yl)-6,7-dihydro-1H-imidazo[4,5-c]pyridin-5(4H)-yl)methanone]",≤ 0.5
14,"CC(C)(O)c1nc(Br)c(C(=O)N2CCc3[nH]cnc3[C@@H]2c2nc3c(F)cccc3o2)o1 [Example 251, (R)-(4-bromo-2-(2-hydroxypropan-2-yl)oxazol-5-yl)(4-(4-fluorobenzo[d]oxazol-2-yl)-6,7-dihydro-1H-imidazo[4,5-c]pyridin-5(4H)-yl)methanone]",1 to 5
15,"Cn1nc(Cl)nc1C(=O)N1CCc2[nH]cnc2[C@@H]1c1nc2cccc(F)c2o1 [Example 284, (R)-(3-chloro-1-methyl-1H-1,2,4-triazol-5-yl)(4-(7-fluorobenzo[d]oxazol-2-yl)-6,7-dihydro-1H-imidazo[4,5-c]pyridin-5(4H)-yl)methanone]",1 to 5
16,"O=C(c1oc(-c2ccc(C(F)(F)F)cn2)nc1C(F)F)N1CCc2[nH]cnc2[C@H]1c1nc2cc(F)ccc2o1 [Example 444, (S)-(4-(difluoromethyl)-2-(5-(trifluoromethyl)pyridin-2-yl)oxazol-5-yl)(4-(5-fluorobenzo[d]oxazol-2-yl)-6,7-dihydro-1H-imidazo[4,5-c]pyridin-5(4H)-yl)methanone]",≤ 0.5
17,"Cc1ccc2oc([C@H]3c4nc[nH]c4CCN3C(=O)c3nnc(-c4cnn(C(F)F)c4)o3)nc2c1 [Example 674, (R)-(5-(1-(difluoromethyl)-1H-pyrazol-4-yl)-1,3,4-oxadiazol-2-yl)(4-(5-methylbenzo[d]oxazol-2-yl)-6,7-dihydro-1H-imidazo[4,5-c]pyridin-5(4H)-yl)methanone]",1 to 5
18,"O=C(c1cnn2cc(N3CCC(F)CC3)ccc12)N1CCc2[nH]cnc2[C@H]1c1nc2cccc(F)c2o1 [Example 369, (S)-(4-(7-fluorobenzo[d]oxazol-2-yl)-6,7-dihydro-1H-imidazo[4,5-c]pyridin-5(4H)-yl)(6-(4-fluoropiperidin-1-yl)pyrazolo[1,5-a]pyridin-3-yl)methanone]",≤ 0.5
19,"O=C(c1ccnn1CC(F)F)N1CCc2[nH]cnc2[C@H]1c1nc2ccccc2o1 [Example 835, (S)-(4-(benzo[d]oxazol-2-yl)-6,7-dihydro-1H-imidazo[4,5-c]pyridin-5(4H)-yl)(1-(2,2-difluoroethyl)-1H-pyrazol-5-yl)methanone]",≤ 0.5
20,"Cc1ncoc1C(=O)N1CCc2[nH]cnc2[C@H]1c1nc2c(F)ccc(F)c2o1 [Example 807, (S)-(4-(4,7-difluorobenzo[d]oxazol-2-yl)-6,7-dihydro-1H-imidazo[4,5-c]pyridin-5(4H)-yl)(4-methyloxazol-5-yl)methanone]",≤ 0.5
21,"CC(C)(O)c1nc(C(F)(F)F)c(C(=O)N2CCc3[nH]cnc3[C@H]2c2nc3c(F)cccc3o2)o1 [Example 257, (S)-(4-(4-fluorobenzo[d]oxazol-2-yl)-6,7-dihydro-1H-imidazo[4,5-c]pyridin-5(4H)-yl)(2-(2-hydroxypropan-2-yl)-4-(trifluoromethyl)oxazol-5-yl)methanone]",≤ 0.5
22,"O=C(c1oc(C2CC2)nc1C(F)F)N1CCc2[nH]cnc2[C@@H]1c1nc2cc(F)ccc2o1 [Example 54, (R)-(2-cyclopropyl-4-(difluoromethyl)oxazol-5-yl)(4-(5-fluorobenzo[d]oxazol-2-yl)-6,7-dihydro-1H-imidazo[4,5-c]pyridin-5(4H)-yl)methanone]",0.5 to 1

# Same assay, conditions: A375 cells expressing R408W PAH; 24 hrs with compound, then 20 μM sepiapterin and 800 μM 13C9,15N-Phenylalanine for 4 hours; 13C-Tyrosine by LC-MS; average where tested multiple times
row,Compound,AC50 [µM]
1,Cn1cc(C(=O)N2CCc3[nH]cnc3C2c2nc3cc(F)ccc3o2)c(Cl)n1 (stereo not drawn),1 to 5
2,O=C(c1nncn1C1CC1)N1CCc2[nH]cnc2C1c1nc2cc(F)ccc2o1 (stereo not drawn),≥ 5
3,Cc1cccc2nc(C3c4nc[nH]c4CCN3C(=O)c3cnn4cc(N5CCC(O)CC5)ccc34)oc12 (stereo not drawn),1 to 5
4,CC(C)(O)c1noc(C(=O)N2CCc3[nH]cnc3C2c2nc3ccc(F)cc3o2)n1 (stereo not drawn),≥ 5
5,COc1ccc(-c2nnc(C(=O)N3CCc4[nH]cnc4C3c3nc4cc(C(F)(F)F)ccc4o3)o2)nc1 (stereo not drawn),1 to 5
6,O=C(c1nnc(-c2ncccc2F)o1)N1CCc2[nH]cnc2C1c1nc2cc(F)ccc2o1 (stereo not drawn),1 to 5
7,COCCc1ccc2c(C(=O)N3CCc4[nH]cnc4C3c3nc4cc(F)ccc4o3)cnn2c1 (stereo not drawn),1 to 5
8,N#Cc1nc(N2CCC(F)CC2)oc1C(=O)N1CCc2[nH]cnc2C1c1nc2cc(F)ccc2o1 (stereo not drawn),≥ 5
9,Cn1ncnc1C(=O)N1CCc2[nH]cnc2C1c1nc2ccc(F)cc2o1 (stereo not drawn),≥ 5
10,O=C1CN(Cc2ccc3c(C(=O)N4CCc5[nH]cnc5C4c4nc5cc(F)ccc5o4)cnn3c2)CCN1 (stereo not drawn),≥ 5
11,O=C(c1cnn2cc(N3CCC(O)CC3)ccc12)N1CCc2[nH]cnc2C1c1nc2cc(F)ccc2o1 (stereo not drawn),1 to 5
